PubChem BioAssay (NCI)
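Tested at 5 concentrations; 48 h exposure; 96-well plates; endpoints linearly interpolated, else capped at highest concentration. GI50: concentration for 50% inhibition of growth. TGI denotes the concentration required for complete inhibition of growth.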

Key:
Assay in all cases: NCI anticancer screen, dose series, 48 h
[1] = test system: 786-0 renal
[2] = test system: A498 renal
[3] = test system: A549 NSCLC
[4] = test system: ACHN renal
[5] = test system: CAKI-1 renal
[6] = test system: CCRF-CEM leukemia
[7] = test system: COLO 205 colon
[8] = test system: DLD-1 colon
[9] = test system: DMS 114 small cell lung
[10] = test system: DMS 273 small cell lung
[11] = test system: EKVX NSCLC
[12] = test system: HCC-2998 colon
[13] = test system: HCT-116 colon
[14] = test system: HCT-15 colon
[15] = test system: HL-60(TB) leukemia
[16] = test system: HOP-18 NSCLC
[17] = test system: HOP-62 NSCLC
[18] = test system: HOP-92 NSCLC
[19] = test system: HT29 colon
[20] = test system: IGROV1 ovarian
[21] = test system: K-562 leukemia
[22] = test system: KM12 colon
[23] = test system: KM20L2 colon
[24] = test system: LOX IMVI melanoma
[25] = test system: LXFL 529 NSCLC
[26] = test system: M14 melanoma
[27] = test system: M19-MEL melanoma
[28] = test system: MALME-3M melanoma
[29] = test system: MOLT-4 leukemia
[30] = test system: NCI-H226 lung
[31] = test system: NCI-H23 lung
[32] = test system: NCI-H460 lung
[33] = test system: NCI-H522 lung
[34] = test system: OVCAR-3 ovarian
[35] = test system: OVCAR-4 ovarian
[36] = test system: OVCAR-5 ovarian
[37] = test system: OVCAR-8 ovarian
[38] = test system: RPMI-8226 leukemia
[39] = test system: RXF 393 renal
[40] = test system: SF-268 CNS
[41] = test system: SF-295 CNS
[42] = test system: SF-539 CNS
[43] = test system: SK-MEL-2 melanoma
[44] = test system: SK-MEL-28 melanoma
[45] = test system: SK-MEL-5 melanoma
[46] = test system: SK-OV-3 ovarian
[47] = test system: SN12C renal
[48] = test system: SNB-19 CNS
[49] = test system: SNB-75 CNS
[50] = test system: SNB-78 CNS
[51] = test system: SR leukemia
[52] = test system: SW-620 colon
[53] = test system: TK-10 renal
[54] = test system: U251 CNS
[55] = test system: UACC-257 melanoma
[56] = test system: UACC-62 melanoma
[57] = test system: UO-31 renal

C[CH2][Sn]([Cl])([Cl])[CH2]C
GI50 [1]: 28.9 µM | TGI [1]: > 56 µM | GI50 [2]: 23.4 µM | TGI [2]: 43.7 µM | GI50 [3]: > 100 µM | TGI [3]: > 100 µM | GI50 [4]: 24.1 µM | TGI [4]: 58.5 µM | GI50 [5]: 8.91 µM | TGI [5]: 25.8 µM | GI50 [6]: 9.5 µM | TGI [6]: 39.9 µM | GI50 [7]: 19.1 µM | TGI [7]: 34.8 µM | GI50 [8]: 36 µM | TGI [8]: > 100 µM | GI50 [9]: 16.2 µM | TGI [9]: 31.4 µM | GI50 [10]: > 91.2 µM | TGI [10]: > 100 µM | GI50 [11]: > 65.6 µM | TGI [11]: > 100 µM | GI50 [12]: > 64.9 µM | TGI [12]: > 100 µM | GI50 [13]: > 63.4 µM | TGI [13]: > 100 µM | GI50 [14]: > 43.2 µM | TGI [14]: > 60.9 µM | GI50 [15]: > 75.9 µM | TGI [15]: > 100 µM | GI50 [16]: 27 µM | TGI [16]: 55.4 µM | GI50 [17]: > 100 µM | TGI [17]: > 100 µM | GI50 [18]: 19.7 µM | TGI [18]: 36.2 µM | GI50 [19]: 55.2 µM | TGI [19]: > 100 µM | GI50 [20]: > 100 µM | TGI [20]: > 100 µM | GI50 [21]: 18.6 µM | TGI [21]: > 69 µM | GI50 [22]: > 100 µM | TGI [22]: > 100 µM | GI50 [23]: 71.4 µM | TGI [23]: > 100 µM | GI50 [24]: 17.5 µM | TGI [24]: 33.1 µM | GI50 [25]: 12.5 µM | TGI [25]: 25.2 µM | GI50 [26]: 24.1 µM | TGI [26]: 57.7 µM | GI50 [27]: 26 µM | TGI [27]: > 67.2 µM | GI50 [28]: 15.8 µM | TGI [28]: 30.3 µM | GI50 [29]: 29 µM | TGI [29]: > 94.5 µM | GI50 [30]: 19.9 µM | TGI [30]: 42.6 µM | GI50 [31]: 19.9 µM | TGI [31]: 41.4 µM | GI50 [32]: > 64.3 µM | TGI [32]: > 100 µM | GI50 [33]: 1.16 µM | TGI [33]: 2.67 µM | GI50 [34]: 98 µM | TGI [34]: > 100 µM | GI50 [35]: > 100 µM | TGI [35]: > 100 µM | GI50 [36]: > 100 µM | TGI [36]: > 100 µM | GI50 [37]: > 100 µM | TGI [37]: > 100 µM | GI50 [38]: 17.1 µM | TGI [38]: 48.3 µM | GI50 [39]: 17.5 µM | TGI [39]: 32.7 µM | GI50 [40]: 29.7 µM | TGI [40]: 79.1 µM | GI50 [41]: > 75 µM | TGI [41]: > 100 µM | GI50 [42]: 40.1 µM | TGI [42]: > 100 µM | GI50 [43]: 17 µM | TGI [43]: 37.4 µM | GI50 [44]: 19.8 µM | TGI [44]: 36.3 µM | GI50 [45]: 45.5 µM | TGI [45]: > 100 µM | GI50 [46]: > 100 µM | TGI [46]: > 100 µM | GI50 [47]: 35.1 µM | TGI [47]: > 78.6 µM | GI50 [48]: 39.5 µM | TGI [48]: > 91.9 µM | GI50 [49]: 24.9 µM | TGI [49]: > 61.7 µM | GI50 [50]: 20.3 µM | TGI [50]: 46.4 µM | GI50 [51]: 25.3 µM | TGI [51]: > 100 µM | GI50 [52]: 20.8 µM | TGI [52]: 39.8 µM | GI50 [53]: 18.3 µM | TGI [53]: 32.4 µM | GI50 [54]: 27.4 µM | TGI [54]: > 59.1 µM | GI50 [55]: 18.4 µM | TGI [55]: 35 µM | GI50 [56]: 22 µM | TGI [56]: 47.8 µM | GI50 [57]: 97.8 µM | TGI [57]: > 100 µM
